The source of these data is PubChem BioAssay (NCI).

Some test systems named below: RXF 393 renal; BT-549 breast; LOX IMVI melanoma; A498 renal; HOP-62 NSCLC; HCC-2998 colon; UACC-257 melanoma; EKVX NSCLC; K-562 leukemia; DU-145 prostate.
Test in all cases: growth of human tumour cells (NCI), 48 h

SMILES strings stand for the structures.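 Cultured in 96-well plates, cells were exposed to test compound for 48 hours across five concentrations. Abbreviation: GI50, concentration required for 50% inhibition of growth. TGI denotes the concentration required for complete inhibition of growth.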

On to `CC12C=CC(C)(O1)C1C2c2ccccc2S1(=O)=O` (stereo not drawn), for which the GI50 in the test with RXF 393 renal was 0.637 µM; with BT-549 breast, 21.6 µM; in the test on LOX IMVI melanoma it was 46.6 µM; in the test on A498 renal, more than 100 µM; in the test on HOP-62 NSCLC, more than 100 µM; with HCC-2998 colon, more than 100 µM. For the same compound, the GI50 in the test with UACC-257 melanoma was 41.7 µM; with EKVX NSCLC, 92.9 µM; in the test on K-562 leukemia, 69.7 µM; with DU-145 prostate, 50.3 µM. In addition, the TGI in the test with RXF 393 renal was 36.9 µM; in the test with BT-549 breast it was 81.6 µM; in the test with LOX IMVI melanoma it was more than 100 µM; in the test on A498 renal it was more than 100 µM; with HOP-62 NSCLC, more than 100 µM; in the test on HCC-2998 colon it was more than 100 µM. The TGI in the test on UACC-257 melanoma, in the test with EKVX NSCLC, with K-562 leukemia and with DU-145 prostate was more than 100 µM throughout.

Regarding `COC(=O)[C@]12CC[C@@H](C)[C@H](C)[C@@H]1C1=CC[C@@H]3[C@@]4(C)C(c5ncon5)=C[C@@](C)(CO)C4=CC[C@@]3(C)[C@]1(C)CC2`, the GI50 with RXF 393 renal is 1.75 µM; in the test with BT-549 breast, 2.39 µM; in the test with LOX IMVI melanoma, 1.62 µM; in the test with A498 renal it was 1.69 µM; in the test with HOP-62 NSCLC it was 2.42 µM; in the test with HCC-2998 colon it was 2.14 µM. Also, the GI50 was 2.1 µM in the test on UACC-257 melanoma, 2.02 µM with EKVX NSCLC, 2.22 µM in the test with K-562 leukemia and 1.77 µM in the test with DU-145 prostate. Besides, the TGI was determined as 3.33 µM in the test with RXF 393 renal; 6.38 µM in the test with BT-549 breast; 2.97 µM with LOX IMVI melanoma; 3.42 µM with A498 renal; 5.08 µM with HOP-62 NSCLC; 3.79 µM in the test with HCC-2998 colon. The TGI is 4.34 µM in the test with UACC-257 melanoma, 4.37 µM in the test on EKVX NSCLC, 4.82 µM with K-562 leukemia and 3.26 µM in the test on DU-145 prostate.

With `COC(=O)c1[nH]nc(-c2ccccc2)c1N1CCCCC1`, the GI50 in the test on RXF 393 renal was 20.7 µM; in the test with BT-549 breast, 43.9 µM; with LOX IMVI melanoma it was 42 µM; with A498 renal, 17.4 µM; in the test with HOP-62 NSCLC, 22 µM; in the test with UACC-257 melanoma it was 39.7 µM. Moreover, the GI50 in the test with EKVX NSCLC was 23.7 µM; in the test on K-562 leukemia it was 57.2 µM; in the test on DU-145 prostate, 30.5 µM. Moreover, the TGI in the test on RXF 393 renal is 54.5 µM; with BT-549 breast, more than 100 µM; with LOX IMVI melanoma, more than 100 µM; in the test with A498 renal, 57.2 µM; with HOP-62 NSCLC, 57 µM; in the test with UACC-257 melanoma, more than 100 µM. Moreover, the figures for the TGI in the test on EKVX NSCLC, in the test on K-562 leukemia and in the test on DU-145 prostate were 73.3 µM, more than 100 µM and more than 100 µM, respectively.

On to `O=C1C[C@@H](c2ccccc2)NCCCCN(O)CCCN1`, for which the TGI in the test on RXF 393 renal, with BT-549 breast, in the test on LOX IMVI melanoma, in the test with A498 renal, with HOP-62 NSCLC and in the test with HCC-2998 colon was more than 100 µM each time. Further, the TGI with UACC-257 melanoma, in the test on EKVX NSCLC and with DU-145 prostate was more than 100 µM in each case.

As to `CC(C)[C@@H](C(=O)O[C@@H]1/C=C/C(=O)O[C@@H](C)CCC/C=C/[C@@H]2C[C@H](O)C[C@H]21)[N+](C)(C)C`, the GI50 with BT-549 breast, in the test on LOX IMVI melanoma, in the test with A498 renal, in the test with HOP-62 NSCLC, in the test on HCC-2998 colon and in the test on UACC-257 melanoma was more than 100 µM each time. Moreover, the GI50 with EKVX NSCLC, in the test with K-562 leukemia and with DU-145 prostate was more than 100 µM throughout. Moreover, the TGI in the test on BT-549 breast, in the test on LOX IMVI melanoma, with A498 renal, with HOP-62 NSCLC, with HCC-2998 colon and in the test with UACC-257 melanoma was more than 100 µM each time. Besides, the TGI in the test with EKVX NSCLC, with K-562 leukemia and with DU-145 prostate was more than 100 µM each time.

For `Cc1cc(-c2ccccc2)c(C)n1Cc1ccc(Cl)cc1`, the GI50 in the test with RXF 393 renal was 2.33 µM; in the test on BT-549 breast it was 5.5 µM; with LOX IMVI melanoma, 6.95 µM; in the test on A498 renal, 2.21 µM; in the test on HOP-62 NSCLC, 6.12 µM; with HCC-2998 colon it was 15.1 µM. Also, the GI50 in the test on UACC-257 melanoma was 5.39 µM; in the test on K-562 leukemia, 0.84 µM; in the test on DU-145 prostate, 6.87 µM. Also, the TGI in the test with RXF 393 renal is 16.6 µM; in the test on BT-549 breast, more than 100 µM; with LOX IMVI melanoma it was more than 100 µM; in the test on A498 renal it was 47.9 µM; in the test on HOP-62 NSCLC it was more than 100 µM; in the test with HCC-2998 colon, 93.7 µM. Also, the TGI in the test on UACC-257 melanoma is 78.6 µM; in the test with K-562 leukemia it was more than 100 µM; in the test on DU-145 prostate, more than 100 µM.

Turning to `CC(=O)OCCC/C(=C\c1ccc2ccccc2c1)[N+](=O)[O-]`, the GI50 with RXF 393 renal is 1.94 µM; with BT-549 breast, 1.72 µM; in the test with A498 renal it was 1.04 µM; in the test with HOP-62 NSCLC it was 2 µM; in the test with HCC-2998 colon, 1.73 µM; in the test with UACC-257 melanoma it was 1.81 µM. Besides, the figures for the GI50 in the test on K-562 leukemia and in the test with DU-145 prostate were 2.01 µM and 1.65 µM, respectively. In addition, the TGI in the test with RXF 393 renal turned out to be 4.1 µM; in the test with BT-549 breast, 3.42 µM; with A498 renal it was 2.39 µM; in the test on HOP-62 NSCLC, 4.09 µM; in the test with HCC-2998 colon, 3.32 µM; in the test with UACC-257 melanoma, 3.54 µM. Besides, the TGI with K-562 leukemia is more than 100 µM; in the test on DU-145 prostate, 3.4 µM.

As for `Cn1cc(-c2csc(-c3cn(CCN4CCOCC4)c4ccc(F)cc34)n2)c2cccnc21`, the GI50 in the test on RXF 393 renal is 2.58 µM; in the test with BT-549 breast, 2.18 µM; in the test on A498 renal, 5.66 µM; in the test with HOP-62 NSCLC, 2.42 µM; with HCC-2998 colon, 3.42 µM; in the test with UACC-257 melanoma, 4.54 µM. Besides, the GI50 was 2.52 µM with EKVX NSCLC, 2.94 µM in the test with K-562 leukemia and 3.12 µM in the test on DU-145 prostate. Also, the TGI in the test with RXF 393 renal amounted to 7.23 µM; in the test on BT-549 breast, 6.21 µM; in the test with A498 renal it was 48.5 µM; with HOP-62 NSCLC it was 7.59 µM; with HCC-2998 colon it was 16.4 µM; in the test with UACC-257 melanoma, 28.9 µM. Further, the figures for the TGI with EKVX NSCLC, in the test on K-562 leukemia and in the test with DU-145 prostate were 26.6 µM, 10.3 µM and more than 100 µM, respectively.

For the compound `COc1ccc(/C=C/c2nc(N3CCOCC3)c3cc(F)c(F)cc3n2)cc1OC`, the GI50 in the test with RXF 393 renal is 5.06 µM; with BT-549 breast, 2.83 µM; in the test with LOX IMVI melanoma it was 5.07 µM; with A498 renal it was 3.41 µM; in the test with HOP-62 NSCLC, 50.7 µM; with HCC-2998 colon, 7.49 µM. For the same compound, the GI50 with UACC-257 melanoma was 4.41 µM; in the test with DU-145 prostate, 8.79 µM. Also, the TGI with RXF 393 renal is more than 100 µM; in the test on BT-549 breast, 19.8 µM; with LOX IMVI melanoma, more than 100 µM; with A498 renal, more than 100 µM; in the test with HOP-62 NSCLC, more than 100 µM; in the test with HCC-2998 colon, more than 100 µM. For the same compound, the TGI in the test on UACC-257 melanoma and with DU-145 prostate was more than 100 µM each time.
